Results reported in patent US20040092495A1, “Biguanide derivatives” (priority 2001, published 2004).

Experiments:
[1] = system: perfused leg of N5STZ rats; assay: Sorption of glucose on the perfused leg of N5STZ rats in absence of insulin; format: in vivo; details: perfused back leg of N5STZ rats; for sorption of glucose: compound 10 μg/mL, 8 mmol/L glucose, n = 4
N5STZ rats = assay: Antidiabetic activity in N5STZ rats (oral, change in glycaemia); format: in vivo; details: four days of treatment, N5STZ diabetic rats, blood sample two hours after final administration
Procedure: Study of the Antidiabetic Activity in N5STZ Rats
The oral antidiabetic activity of the compounds of the formula (I) was determined on an experimental model of non-insulin-dependent diabetes induced in the rats using steptozotocin.
The model of non-insulin-dependent diabetes is obtained in the rats by means of an injection of steptozotocin on the 5th day after birth.
The diabetic rats used are eight weeks old. The animals are housed, from the day of birth to the day of the experiment, in an animal house at a regulated temperature of 21 to 22° C. and subjected to a fixed cycle of light (from 7 a.m. to 7 p.m.) and darkness (from 7 p.m. to 7 a.m.). Their food consisted of a maintenance diet, and water and food were given “ad libitum”, with the exception of fasting two hours before the tests, during which period the food is removed (post-absorptive state).
The rats are treated orally with the test product for four (D4) days. Two hours after the final administration of the product and 30 minutes after the animals have been anaesthetised with pentobarbital sodium (Nembutal®), a 300 μl blood sample is taken from the end of the tail.
By way of example, results obtained with compound 1 prepared above are collated compared with metformin in the following table.

CN(C)C(=N)NC(=N)N1CCCC1.Cl [Compound 1, Dimethylaminoiminomethylpyrrolidinecarboximidamide Hydrochloride] was tested, and the sorption of glucose [1] was 116.08 ± 20.63 (n = 4) μmol/g/l, the “percentage change in the glycaemia on D4 relative to DO” value (N5STZ rats; 25 mg/kg) was −6% and the “percentage change in the glycaemia on D4 relative to DO” value (N5STZ rats; 50 mg/kg) was −23%. For the same compound, the “percentage change in the glycaemia on D4 relative to DO” value (N5STZ rats; 100 mg/kg) was −36%.
In the case of CN(C)C(=N)N=C(N)N [Metformin, metformin], the “induction of sorption of glucose by the muscle in absence of insulin (in words)” value [1] is reported as “no effect”, the sorption of glucose [1] is reported as 32.09 ± 7.25 (n = 4) μmol/g/l and the “percentage change in the glycaemia on D4 relative to DO” value (N5STZ rats; 25 mg/kg) is reported as −13%. For the same compound, the “percentage change in the glycaemia on D4 relative to DO” value (N5STZ rats; 50 mg/kg) was −22% and the “percentage change in the glycaemia on D4 relative to DO” value (N5STZ rats; 100 mg/kg) was −21%.
